Literature values, collected in patent publication US20140107130A1, “Oral Solution Formulations of Aripiprazole” (Antrim Pharmaceuticals, LLC, priority 2012, published 2014).

Assays:
[1] = intramuscular (IM) injectable solution; many water-miscible co-solvent and water-immiscible solvent/co-solvent systems
[2] = room temperature

In the case of `O=C1CCc2ccc(OCCCCN3CCN(c4cccc(Cl)c4Cl)CC3)cc2N1` [Aripiprazole], the “tissue irritation at the muscular site” value [1] is listed as “unacceptable (moderate to severe) tissue irritation” and the aqueous solubility [2] is listed as under 1 µg/mL.
